Measurements reported in patent US20120142715A1, “POLYMORPH OF [4,6-BIS(DIMETHYLAMINO)-2-(4-BENZYL)PYRIMIDIN-5-YL]” (BOEHRINGER INGELHEIM INTERNATIONAL GMBH, priority 2009, published 2012).
Counter-ions that a name gives are not always drawn.

Assays:
[1] = Dynamic vapor sorption (water sorption/desorption); assay type: physicochemical; conditions: for hygroscopicity (in words): DVS; for moisture gain / water uptake: 85% relative humidity
Protocol: Water sorption/desorption profiles: Water sorption/desorption profiles of the Type II ethylenediamine salt are shown in FIG. 6. […] A similar water sorption/desorption study was carried out on the Type I ethylenediamine salt (FIG. 7). […] The sorption of water caused a form change in the Type I ethylenediamine salt which was observed using XRPD analysis.
Vapor sorption/desorption was carried out using Surface Measurement Systems DVS-HT. Samples were placed into a foil insert placed on a sample pan. […] The equilibrium point of each step was reached when 0.002% of weight change was reached.

[2] = cited from earlier work
[3] = DSC and TGA thermal events / weight loss at elevated temperature; assay type: physicochemical
Protocol: Weight loss at elevated temperature: Differences in thermal characteristics between the Type I and Type II ethylenediamine salts were also observed using differential scanning calorimetry (DSC), thermal gravimetric analysis (TGA) and dynamic vapor sorption (DVS) studies.
DSC and TGA thermograms of the Type II ethylenediamine salt (FIG. 4) indicate minimal loss of residual solvent up to 100° C. (about 0.16% which is controllable by more thorough drying). […] A first endothermic peak appears at about 192° C. with about 5.6% of total weight loss in TGA at corresponding temperature region (140° C. to 210° C.). This weight loss corresponds roughly to the theoretical weight loss (5.99 wt %) of ethylenediamine from the ethylenediamine salt of the compound of formula (I) (which contains 0.50 molar equivalents of ethylenediamine). […] The following endothermic peak is shown at 232° C. which is similar to the melting point of the free-acid form of the compound of formula (I).
There is about 3.8% weight loss at 20° C. to 70° C., which corresponds to the loss of water. A major endotherm at 118° C. to 134° C. corresponds to the melting of the ethylenediamine salt with volatilization, corresponding to the loss of ethanol and some ethylenediamine (about 4.4%). Further loss of ethylenediamine occurs at about 147° C. to 160° C. Above 165° C., melting and decomposition of the free-acid of the compound of formula (I) take place.
DSC was carried out using TA Instruments Q1000 Differential Scanning Calorimeter. Samples were placed in sealed aluminum pans for analysis with an empty aluminum pan as the reference. A heating rate of 10° C./min was employed over a temperature range from 20° C. to 300° C.
TGA was carried out using TA Instruments Q500 Thermogravimetric analyzer. Samples were placed into an platinum sample pan. A heating rate of 10° C./min was employed over a temperature range from 25° C. to 300° C.

[4] = XRPD analysis of crystallinity after heat-treatment; assay type: physicochemical; conditions: for change in crystallinity (XRPD) as a result of heat treatment: heated at 80° C. under reduced pressure for 15 hours, vs sample kept at about 25° and atmospheric pressure
Protocol: Effect of heat-treatment on crystallinity: Applicants carried out an XRPD analysis of samples of the Type I and Type II ethylenediamine salts exposed to elevated temperature (80° C.), and the results are shown in FIG. 3. In FIG. 3, the top pattern A-1 was obtained on a sample of the Type II ethylenediamine salt maintained at atmospheric pressure and at about 25° prior to measuring the XRPD reflections. The pattern A-2 was obtained from a sample of the Type II ethylenediamine salt which was heated at 80° C. under reduced pressure for 15 hours prior to measuring the XRPD reflections.
The bottom pattern B-1 was obtained on a sample of the Type I ethylenediamine salt which was maintained at atmospheric pressure and at about 25° prior to measuring the XRPD reflections. The pattern B-2 was obtained from a sample of the Type I ethylenediamine salt which was heated at 80° C. under reduced pressure for 15 hours prior to measuring the XRPD reflections.
XRPD data were recorded with a Rigaku Miniflex II powder diffractometer (The Woodlands, Tex.). The radiation was CuKa (30 kV, 15 mA). Data were collected at 25° C. from 3 to 35 degrees 2θ at 0.02 degrees per step and 1.67 sec per step. Samples were prepared on Silicon (510) specimen holders as a thin layer of powdered material without solvent.

hygroscopicity (in words) ([1]; 25° C.)	water uptake ([1]; 70% relative humidity, 25° C.) [%]	moisture gain / water uptake ([1]; 25° C.)	effect of water sorption on solid form (XRPD) ([1]; after sorption of water)	thermal behavior in DSC and TGA thermograms [3]	weight loss (loss of water) ([3]; 20° C. to 70° C.)	Onset of event: Loss of water ([3]; DSC/TGA, 10° C./min) [°C]	Onset of event: Melting and loss of ethanol and ethylenediamine ([3]; DSC/TGA, 10° C./min) [°C]	Onset of event: Melting of the free-acid of compound of formula (I) ([3]; DSC/TGA, 10° C./min) [°C]	weight loss (loss of ethanol and some ethylenediamine) ([3]; major endotherm at 118° C. to 134° C.)	proneness to hydration compared with the other polymorph [1]	total weight loss in TGA (loss of ethylenediamine) ([3]; 140° C. to 210° C., first endothermic peak at about 192° C.)	Onset of event: Melting and loss of ethylenediame ([3]; DSC/TGA, 10° C./min) [°C]	loss of residual solvent (TGA) ([3]; up to 100° C.)	thermal stability compared with the other polymorph (XRPD study) ([4]; 80° C. heat treatment)	SMILES	weight loss in thermogravimetric analysis (attributed to loss of ethanol) ([2]; from 125° C. to 150° C.)	weight loss in thermogravimetric analysis ([2]; from about 30° C. to about 75° C.)	change in crystallinity (XRPD) as a result of heat treatment [4]
significant moisture sorption	~6	~7%	form change	unstable thermal behavior	about 3.8%	30	120	210	about 4.4%						CN(C)c1nc(Cc2ccc(NC(=O)c3ccc(C(F)(F)F)cc3)cc2)nc(N(C)C)c1CC(=O)O [Type I ethylenediamine salt, ethylenediamine salt of [4,6-bis(dimethylamino)-2-(4-{[4-(trifluoromethyl)benzoyl]amino}benzyl)pyrimidin-5-yl]acetic acid]	larger weight loss	slight weight loss	significant change in the crystallinity
non-hygroscopic		about 0.08%						225		less prone to hydration	about 5.6%	160	about 0.16%	more thermally stable	CN(C)c1nc(Cc2ccc(NC(=O)c3ccc(C(F)(F)F)cc3)cc2)nc(N(C)C)c1CC(=O)O [Type II ethylenediamine salt, ethylenediamine salt of [4,6-bis(dimethylamino)-2-(4-{[4-(trifluoromethyl)benzoyl]amino}benzyl)pyrimidin-5-yl]acetic acid]			no noticeable change in the crystallinity
